Measured values as given in patent US9469650B2, “Melampomagnolide B derivatives” (BOARD OF TRUSTEES OF THE UNIVERSITY OF ARKANSAS, priority 2013, dated 2016).

Assays:
[1] = tested on: BT-549; assay: panel of 60 human tumor cell lines, growth inhibition (Breast Cancer)
[2] = tested on: DU-145; assay: panel of 60 human tumor cell lines, growth inhibition (Prostate Cancer); settings: DU-145
[3] = tested on: SF-295; assay: panel of 60 human tumor cell lines, growth inhibition (CNS Cancer); settings: SF-295
[4] = tested on: OVCAR-5; assay: panel of 60 human tumor cell lines, growth inhibition (Ovarian Cancer); settings: OVCAR-5
[5] = tested on: SK-OV-3; assay: as above; settings: SK-OV-3
[6] = tested on: SK-MEL-5; assay: panel of 60 human tumor cell lines, growth inhibition (Melanoma); settings: 8K-MEL-5
[7] = tested on: NCI-H322M; assay: panel of 60 human tumor cell lines, growth inhibition (Non-Small Cell Lung Cancer)
[8] = tested on: UACC-257; assay: panel of 60 human tumor cell lines, growth inhibition (Melanoma); settings: UACC-257
[9] = tested on: HOP-62; assay: panel of 60 human tumor cell lines, growth inhibition (Non-Small Cell Lung Cancer); settings: HOP-62
[10] = 81-549, Log10 Concentration −4.0
[11] = 81-549, Log10 Concentration −5.0
[12] = 81-549, Log10 Concentration −6.0
[13] = 81-549, Log10 Concentration −7.0
[14] = 81-549, Log10 Concentration −8.0

C=C1C(=O)O[C@H]2[C@H]1CC/C(COC(=O)N1CCN(C)CC1)=C\CC[C@@]1(C)O[C@@H]21 [JVM 2-44]
TGI ([1]; 81-549): 1.81E−5
Mean Optical Densities [1, 10]: 0.180
Percent Growth [1, 10]: −86%
Mean Optical Densities [1, 11]: 1.522
Percent Growth [1, 11]: 30%
Mean Optical Densities [1, 12]: 1.985
Percent Growth [1, 12]: 84%
Mean Optical Densities [1, 13]: 1.951
Percent Growth [1, 13]: 80%
Mean Optical Densities [1, 14]: 2.028
Percent Growth [1, 14]: 89%
GI50 [2]: 3.98 µM
TGI [2]: 1.44E−5
Mean Optical Densities ([2]; Log10 Concentration −4.0): 0.835
Percent Growth ([2]; Log10 Concentration −4.0): −93%
Mean Optical Densities ([2]; Log10 Concentration −5.0): 0.750
Percent Growth ([2]; Log10 Concentration −5.0): 17%
Mean Optical Densities ([2]; Log10 Concentration −6.0): 1.844
Percent Growth ([2]; Log10 Concentration −6.0): 99%
Mean Optical Densities ([2]; Log10 Concentration −7.0): 1.845
Percent Growth ([2]; Log10 Concentration −7.0): 99%
Mean Optical Densities ([2]; Log10 Concentration −8.0): 1.839
Percent Growth ([2]; Log10 Concentration −8.0): 99%
GI50 [3]: 70.7 µM
TGI [3]: >1.00E−4
Mean Optical Densities ([3]; Log10 Concentration −4.0): 1.767
Percent Growth ([3]; Log10 Concentration −4.0): 43%
Mean Optical Densities ([3]; Log10 Concentration −5.0): 2.724
Percent Growth ([3]; Log10 Concentration −5.0): 87%
Mean Optical Densities ([3]; Log10 Concentration −6.0): 2.913
Percent Growth ([3]; Log10 Concentration −6.0): 96%
Mean Optical Densities ([3]; Log10 Concentration −7.0): 2.707
Percent Growth ([3]; Log10 Concentration −7.0): 87%
Mean Optical Densities ([3]; Log10 Concentration −8.0): 2.920
Percent Growth ([3]; Log10 Concentration −8.0): 96%
GI50 [4]: 13.4 µM
TGI [4]: 3.03E−5
Mean Optical Densities ([4]; Log10 Concentration −4.0): 0.201
Percent Growth ([4]; Log10 Concentration −4.0): −73%
Mean Optical Densities ([4]; Log10 Concentration −5.0): 1.240
Percent Growth ([4]; Log10 Concentration −5.0): 68%
Mean Optical Densities ([4]; Log10 Concentration −6.0): 1.400
Percent Growth ([4]; Log10 Concentration −6.0): 89%
Mean Optical Densities ([4]; Log10 Concentration −7.0): 1.404
Percent Growth ([4]; Log10 Concentration −7.0): 90%
Mean Optical Densities ([4]; Log10 Concentration −8.0): 1.415
Percent Growth ([4]; Log10 Concentration −8.0): 91%
GI50 [5]: 31.8 µM
TGI [5]: >1.00E−4
Mean Optical Densities ([5]; Log10 Concentration −4.0): 1.032
Percent Growth ([5]; Log10 Concentration −4.0): 4%
Mean Optical Densities ([5]; Log10 Concentration −5.0): 1.852
Percent Growth ([5]; Log10 Concentration −5.0): 96%
Mean Optical Densities ([5]; Log10 Concentration −6.0): 1.892
Percent Growth ([5]; Log10 Concentration −6.0): 101%
Mean Optical Densities ([5]; Log10 Concentration −7.0): 1.808
Percent Growth ([5]; Log10 Concentration −7.0): 91%
Mean Optical Densities ([5]; Log10 Concentration −8.0): 1.885
Percent Growth ([5]; Log10 Concentration −8.0): 100%
GI50 [6]: 16.1 µM
TGI [6]: 3.06E−5
Mean Optical Densities ([6]; Log10 Concentration −4.0): 0.067
Percent Growth ([6]; Log10 Concentration −4.0): −91%
Mean Optical Densities ([6]; Log10 Concentration −5.0): 2.878
Percent Growth ([6]; Log10 Concentration −5.0): 87%
Mean Optical Densities ([6]; Log10 Concentration −6.0): 3.118
Percent Growth ([6]; Log10 Concentration −6.0): 97%
Mean Optical Densities ([6]; Log10 Concentration −7.0): 3.182
Percent Growth ([6]; Log10 Concentration −7.0): 100%
Mean Optical Densities ([6]; Log10 Concentration −8.0): 3.116
Percent Growth ([6]; Log10 Concentration −8.0): 97%
GI50 [7]: 16.2 µM
TGI [7]: 5.44E−5
Mean Optical Densities ([7]; Log10 Concentration −4.0): 0.569
Percent Growth ([7]; Log10 Concentration −4.0): −25%
Mean Optical Densities ([7]; Log10 Concentration −5.0): 1.434
Percent Growth ([7]; Log10 Concentration −5.0): 70%
Mean Optical Densities ([7]; Log10 Concentration −6.0): 1.650
Percent Growth ([7]; Log10 Concentration −6.0): 93%
Mean Optical Densities ([7]; Log10 Concentration −7.0): 1.624
Percent Growth ([7]; Log10 Concentration −7.0): 91%
Mean Optical Densities ([7]; Log10 Concentration −8.0): 1.649
Percent Growth ([7]; Log10 Concentration −8.0): 93%
GI50 [8]: 9.93 µM
TGI [8]: 2.32E−5
Mean Optical Densities ([8]; Log10 Concentration −4.0): 0.150
Percent Growth ([8]; Log10 Concentration −4.0): −86%
Mean Optical Densities ([8]; Log10 Concentration −5.0): 1.662
Percent Growth ([8]; Log10 Concentration −5.0): 50%
Mean Optical Densities ([8]; Log10 Concentration −6.0): 2.046
Percent Growth ([8]; Log10 Concentration −6.0): 84%
Mean Optical Densities ([8]; Log10 Concentration −7.0): 2.135
Percent Growth ([8]; Log10 Concentration −7.0): 92%
Mean Optical Densities ([8]; Log10 Concentration −8.0): 2.160
Percent Growth ([8]; Log10 Concentration −8.0): 94%
GI50 [9]: 27.3 µM
TGI [9]: >1.00E−4
Mean Optical Densities ([9]; Log10 Concentration −4.0): 0.936
Percent Growth ([9]; Log10 Concentration −4.0): 7%
Mean Optical Densities ([9]; Log10 Concentration −5.0): 2.007
Percent Growth ([9]; Log10 Concentration −5.0): 83%
Mean Optical Densities ([9]; Log10 Concentration −6.0): 2.174
Percent Growth ([9]; Log10 Concentration −6.0): 95%
Mean Optical Densities ([9]; Log10 Concentration −7.0): 2.046
Percent Growth ([9]; Log10 Concentration −7.0): 86%
Mean Optical Densities ([9]; Log10 Concentration −8.0): 2.193
Percent Growth ([9]; Log10 Concentration −8.0): 96%
